Data taken from patent US10544120B2, “Biaryl kinase inhibitors” (BRISTOL-MYERS SQUIBB COMPANY, priority 2015, dated 2020).

Target: GST-Xa-hAAK1 (Homo sapiens (Human), UniProt Q2M2I8)
Test: AAK1 Kinase Assay
Type: biochemical
Conditions: bacterially expressed GST-Xa-hAAK1 3.5 nM; ATP 22 μM; fluoresceinated peptide 1.5 μM; 3 hours at room temperature; Caliper LabChip 3000
Protocol: The assays were performed in U-bottom 384-well plates. […] The reactions were initiated by the combination of bacterially expressed, GST-Xa-hAAK1 with substrates and test compounds. The reactions were incubated at room temperature for 3 hours and terminated by adding 60 μl of 35 mM EDTA buffer to each sample. The reactions were analyzed on the Caliper LabChip 3000 (Caliper, Hopkinton, Mass.) by electrophoretic separation of the fluorescent substrate and phosphorylated product. […] Compounds were dissolved at 10 mM in dimethylsulfoxide (DMSO) and evaluated at eleven concentrations. IC50 values were derived by non-linear regression analysis.

Sequence of GST-Xa-hAAK1 (Q2M2I8 whole entry): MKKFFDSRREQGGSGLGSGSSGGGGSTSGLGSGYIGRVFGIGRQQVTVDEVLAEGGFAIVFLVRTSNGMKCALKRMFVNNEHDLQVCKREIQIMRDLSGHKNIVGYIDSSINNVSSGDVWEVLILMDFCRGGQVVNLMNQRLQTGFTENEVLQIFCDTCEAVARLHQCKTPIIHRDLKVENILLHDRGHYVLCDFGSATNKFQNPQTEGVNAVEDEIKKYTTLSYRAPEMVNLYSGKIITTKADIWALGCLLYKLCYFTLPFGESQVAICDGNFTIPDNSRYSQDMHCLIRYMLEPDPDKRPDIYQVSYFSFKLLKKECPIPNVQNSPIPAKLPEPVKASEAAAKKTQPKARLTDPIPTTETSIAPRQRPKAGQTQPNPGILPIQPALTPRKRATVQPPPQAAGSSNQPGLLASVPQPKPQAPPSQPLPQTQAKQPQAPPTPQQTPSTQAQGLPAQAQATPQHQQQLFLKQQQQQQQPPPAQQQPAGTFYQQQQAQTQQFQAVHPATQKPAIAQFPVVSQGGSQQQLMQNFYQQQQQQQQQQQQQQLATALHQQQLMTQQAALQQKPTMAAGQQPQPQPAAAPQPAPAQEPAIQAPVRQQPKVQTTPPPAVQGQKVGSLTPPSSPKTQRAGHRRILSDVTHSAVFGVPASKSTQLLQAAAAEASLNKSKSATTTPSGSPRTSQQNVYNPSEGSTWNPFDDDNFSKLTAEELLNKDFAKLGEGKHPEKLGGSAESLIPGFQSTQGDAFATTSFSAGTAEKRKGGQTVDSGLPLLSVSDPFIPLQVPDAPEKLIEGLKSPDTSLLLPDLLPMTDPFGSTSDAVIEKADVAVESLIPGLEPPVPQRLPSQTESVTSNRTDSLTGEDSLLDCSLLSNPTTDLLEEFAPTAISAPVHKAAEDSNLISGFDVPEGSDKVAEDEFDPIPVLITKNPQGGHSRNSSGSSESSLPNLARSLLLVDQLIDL

Structure (SMILES) | IC50 [nM]
Cc1cc(-c2cc(C(F)(F)F)c(OCC(C)(N)CC(C)C)cn2)ccn1 (stereo in doubt) [Example 164, (R)-2,4-dimethyl-1-((2′-methyl-4-(trifluoromethyl)-[2,4′-bipyridin]-5-yl)oxy)pentan-2-amine] | 254
Cc1nccc(-c2cnc(OC[C@](C)(N)CC(C)C)c(C)c2)n1 [Example 263, (R)-2,4-dimethyl-1-((3-methyl-5-(2-methylpyrimidin-4-yl)pyridin-2-yl)oxy)pentan-2-amine] | 950
Cc1nccc(-c2cnc(OC[C@@](C)(N)CC(C)C)c(C)c2)n1 [Example 268, (S)-2,4-dimethyl-1-((3-methyl-5-(2-methylpyrimidin-4-yl)pyridin-2-yl)oxy)pentan-2-amine] | 11
COC(=O)Nc1cc(-c2ccc(OCC(N)(CC(C)C)C(F)(F)F)c(C)n2)ccn1 (stereo not shown) [Example 273, methyl 5-(2-amino-4-methyl-2-(trifluoromethyl)pentyloxy)-6-methyl-2,4′-bipyridin-2′-ylcarbamate] | 226
Cc1nccc(-c2cnc(OCC(N)(CC(C)C)C(F)(F)F)c(C)c2)n1 (stereo not shown) [Example 274, 1,1,1-trifluoro-4-methyl-2-(((3-methyl-5-(2-methylpyrimidin-4-yl)pyridin-2-yl)oxy)methyl)pentan-2-amine] | 986
CC(C)C[C@](C)(N)COc1ccc(-c2cc(N)ncn2)cc1C(F)(F)F [Example 278, (S)-6-(4-((2-amino-2,4-dimethylpentyl)oxy)-3-(trifluoromethyl)phenyl) pyrimidin-4-amine] | 1.9
Cc1nccc(-c2ccc(OC[C@@](C)(N)CC(C)C)c(CF)n2)n1 [Example 279] | 23
COC(=O)Nc1cc(-c2ccc(OC[C@@](C)(N)CC(C)C)c(CF)n2)ccn1 [Example 280, (S)-methyl (5-((2-amino-2,4-dimethylpentyl)oxy)-6-(fluoromethyl)-[2,4′-bipyridin]-2′-yl)carbamate] | 1.1

More lines, now with the values ahead:

IC50 [nM] | Structure (SMILES)
865 | Cc1nccc(-c2ccc(OCC(N)(CC(C)C)C(F)(F)F)c(C)n2)n1 (single isomer, unassigned) [Example 359, 1,1,1-trifluoro-4-methyl-2-(((2-methyl-6-(2-methylpyrimidin-4-yl)pyridin-3-yl)oxy)methyl)pentan-2-amine]
1250 | Cc1nccc(-c2ccc(OCC(N)(CC(C)C)C(F)(F)F)c(C)n2)n1 (single isomer, unassigned) [Example 360, 1,1,1-trifluoro-4-methyl-2-(((2-methyl-6-(2-methylpyrimidin-4-yl)pyridin-3-yl)oxy)methyl)pentan-2-amine]
1.1 | CC(C)C[C@](C)(N)COc1ccc(-c2cc(N)ncn2)cc1Cl [Example 285, (S)-6-(4-((2-amino-2,4-dimethylpentyl)oxy)-3-chlorophenyl)pyrimidin-4-amine]
0.6 | Cc1nccc(-c2ccc(OC[C@@](C)(N)CC(C)C)c(C(F)(F)F)c2)n1 [Example 290, (S)-2,4-dimethyl-1-(4-(2-methylpyrimidin-4-yl)-2-(trifluoromethyl)phenoxy)pentan-2-amine]
0.3 | CC(C)C[C@](C)(N)COc1ccc(-c2ccnc(N)c2)cc1C(F)(F)F [Example 297, (S)-4-(4-((2-amino-2,4-dimethylpentyl)oxy)-3-(trifluoromethyl)phenyl)pyridin-2-amine]
45 | Cc1nccc(-c2cnc(OC[C@@](C)(N)CC(C)C)c(-c3cnco3)c2)n1 [Example 298, (S)-2,4-dimethyl-1-((5-(2-methylpyrimidin-4-yl)-3-(oxazol-5-yl)pyridin-2-yl)oxy)pentan-2-amine]
246 | COC(=O)Nc1cc(-c2ccc(OC[C@@](C)(N)CC(C)C)c(C#N)c2)cnn1 [Example 300, (S)-methyl (5-(4-((2-amino-2,4-dimethylpentyl)oxy)-3-cyanophenyl)pyridazin-3-yl)carbamate]
58 | COC(=O)Nc1cc(-c2ccc(OC[C@@](C)(N)CC(C)C)c(Cl)c2)cnn1 [Example 301, (S)-methyl (5-(4-((2-amino-2,4-dimethylpentyl)oxy)-3-chlorophenyl)pyridazin-3-yl)carbamate]
